Results taken from patent US5707984A, “Steroid nitrite/nitrate ester derivatives useful as anti-inflammatory drugs” (G. D. Searle & Co., priority 1995, dated 1998).

Legend:
[1] = test system: rat aortic ring smooth muscle; assay: In vitro smooth relaxant activity assay, rat aortic rings precontracted with phenylephrine; assay type: cell-based; conditions: for EC50: Rattus norvegicus, in the presence of Cys and L-NAME, precontracted with phenylephrine (0.3 μM), read-out: Relaxation, EC50; for smooth muscle relaxant activity (in words): rat aortic rings, Cys and L-NAME, FIGS. 1 and 2
Protocol: (§1) Selected compounds were tested in three in vitro and two in vivo assays. The in vitro assays consisted of the following: measuring the effect of the compounds to inhibit the increase of prostaglandins following treatment of human fetal fibroblasts cells with interleukin-1 followed by arachidonic acid, measuring the effect of the compounds on cyclic GMP in the human fetal fibroblasts, and measuring the smooth muscle relaxant activity in rat aortic rings. The in vivo assay consists of measuring the antiinflammatory properties of the compounds in the carageenan treated rat air pouch model and the relaxant activity on acetylcholine-induced bronchoconstriction in guinea-pigs.
C. In vitro smooth relaxant activity assay: Selected compounds were examined for the ability to relax smooth muscle. The rat aortic ring assay was utilized as a bioassay to measure the relaxant activity. The rings were precontracted with phenylephrine (0.3 μM) and subsequently compounds were added to the tissue bath in the presence of cysteine (Cys) and N^G -L-nitro-arginine methyl ester (L-NAME): […]

[2] = test system: cyclic GMP in human fetal fibroblasts; assay: In vitro stimulation of cGMP production assay, human fetal fibroblasts with isobutylmethylxanthine, radioimmunoassay (NO reporter cell assay); assay type: cell-based; conditions: 120 min, isobutylmethylxanthine present; basal 1.8
Protocol: as §1
B. In vitro stimulation of cGMP production assay: Human fetal fibroblasts in the presence of isobutylmethylxanthine, an inhibitor of phosphodiesterase, were treated with compounds for 120 min and the intra-cellular cyclic GMP levels are measured by a radioimmunoassay. The cell line is utilized as a reporter cell assay to monitor the production of NO.

[3] = test system: prostaglandin E2 (PGE2) synthesis in human fetal fibroblasts cells; assay: In vitro inhibition of prostaglandin E2 (PGE2) synthesis assay, human fetal fibroblasts treated with IL-1 then arachidonic acid, ELISA; assay type: cell-based; conditions: IL-1 16 h then arachidonic acid; compound 10 uM added with IL-1; basal 3.5, IL-1, AA alone 40.0
Protocol: as §1
A. In vitro inhibiton of prostaglandin E2 (PGE2) synthesis assay: Human fetal fibroblasts cells were treated with IL-1 for 16 hours and then with 10 mM arachidonic acid (AA). The prostaglandin E2 levels were measured by an ELISA. Compounds were given at the time of addition of IL-1. This assay provides an in vitro assessment of the compound to block the induction of the proinflammatory agent prostaglandin E2 (PGE2): […]

[4] = test system: prostaglandin E2 in pouch fluid (carageenan-induced inflammation); assay: In vivo anti inflammatory assay, rat carageenan air pouch
Protocol: as §1
D. In vivo anti inflammatory assay: EXAMPLE 1 was tested for antiinflammatory activity in vivo in the rat carageenan air pouch assay. Rats are injected subcutaneously with a volume of air over several days to form a pouch. […] The inflammation is measured by assaying the pouch fluid for prostaglandin E2 by ELISA. Examples 1 at 3 mg/kg dose blocked the increase in prostaglandin E2 by 60%.

`CCC(=O)OCC(=O)[C@@]1(OC(=O)CC)[C@@H](C)C[C@H]2[C@@H]3CCC4=CC(=O)C=C[C@]4(C)[C@@]3(Cl)[C@@H](ON=O)C[C@@]21C` [Example 11] gave an EC50 [1] of 40 nM.
Compound `CC(=O)OCC(=O)[C@@]1(O)CC[C@H]2[C@@H]3CCC4=CC(=O)C=C[C@]4(C)[C@H]3[C@@H](O[N+](=O)[O-])C[C@@]21C` [prednisolone-11-nitrate ester-21-acetate] has an EC50 [1] of 25000 nM.
`C[C@]12C=CC(=O)C=C1CC[C@@H]1[C@@H]2[C@@H](ON=O)C[C@@]2(C)[C@H]1CC[C@]2(O)C(=O)CO` [Example 2] showed an EC50 [1] of 30 nM.
`C[C@]12C=CC(=O)C=C1CC[C@@H]1[C@@H]2[C@@H](O)C[C@@]2(C)[C@H]1CC[C@]2(O)C(=O)CO` [prednisolone] was tested, and the “smooth muscle relaxant activity (in words)” value [1] was “did not show any effect”, the “cyclic GMP” value [2] was 1.6 fm/cell well and the PGE2 [3] was 9.9 ng.
For `CCC(=O)OCC(=O)[C@@]1(OC(=O)CC)[C@@H](C)C[C@H]2[C@@H]3CCC4=CC(=O)C=C[C@]4(C)[C@@]3(Cl)[C@@H](O[N+](=O)[O-])C[C@@]21C` [beclomethasone dipropionate-11-nitrate ester], the EC50 [1] was 2000 nM.
For `CC(=O)OCC(=O)[C@@]1(O)CC[C@H]2[C@@H]3CCC4=CC(=O)C=C[C@]4(C)[C@H]3[C@@H](ON=O)C[C@@]21C` [Example 1], the “ability to reduce inflammation in vivo (in words)” value [4] was “possess the ability to reduce inflammation in vivo”, the “blocked the increase in prostaglandin E2” value ([4]; 3 mg/kg) was 60% and the EC50 [1] was 20 nM. The “cyclic GMP” value [2] was 4.8 fm/cell well and the PGE2 [3] was 9.2 ng.
With `CCC(=O)OCC(=O)[C@@]1(OC(=O)CC)[C@@H](C)C[C@H]2[C@@H]3CCC4=CC(=O)C=C[C@]4(C)[C@@]3(Cl)[C@@H](O)C[C@@]21C` [beclomethasone dipropionate] the EC50 [1] was greater than 100000 nM and the “smooth muscle relaxant activity (in words)” value [1] was “did not show any effect”.
